# Target: Human Factor D (Homo sapiens (Human), UniProt P00746)
# Experiment: Human Factor D Assay
# Type: biochemical
# Details: Table 5; Human Factor D 80 nM, substrate Z-L-Lys-SBzl; read-out: IC50 (Stars)
# Method: Human Factor D (purified from human serum, Complement Technology, Inc.) at 80 nM final concentration is incubated with test compound at various concentrations for 5 min at room temperature in 50 mM Tris, 1M NaCl, pH 7.5. A synthetic substrate Z-L-Lys-SBzl and DTNB (Ellman's reagent) are added to final concentrations of 100 μM each. Absorbance at 405 nm (A405) is recorded at 30 second intervals for 30 min using a microplate spectrophotometer. IC50 values are calculated by nonlinear regression of Complement Factor D reaction rates as a function of test compound concentration.
# Chain of Human Factor D (P00746 26-253): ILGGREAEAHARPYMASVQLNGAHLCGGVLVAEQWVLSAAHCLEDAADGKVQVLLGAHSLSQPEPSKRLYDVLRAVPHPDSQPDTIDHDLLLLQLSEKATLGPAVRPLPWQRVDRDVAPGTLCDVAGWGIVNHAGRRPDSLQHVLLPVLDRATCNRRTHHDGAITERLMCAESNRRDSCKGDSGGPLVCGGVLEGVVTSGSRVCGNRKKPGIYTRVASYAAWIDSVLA
row,Compound,IC50 [nM]
1,"CC(=O)c1nn(CC(=O)N2C[C@H]3C[C@H]3[C@H]2C(=O)Nc2cccc(Br)n2)c2cc(S(C)(=N)=O)ccc12 (stereo partly drawn) [Compound T-7, (1R,2S,5S)-3-(2-(3-acetyl-6-(S-methylsulfonimidoyl)-1H-indazol-1-yl)acetyl)-N-(6-bromopyridin-2-yl)-3-azabicyclo[3.1.0]hexane-2-carboxamide]",< 1000
2,"CC(=O)c1nn(CC(=O)N2[C@H](C(=O)Nc3nc(Br)ccc3C)C[C@@]3(C)C[C@@H]23)c2ccc(NC(=O)C3CCCC3(F)F)cc12 (stereo partly drawn) [Compound T-27, (1R,3S,5R)-2-(2-(3-acetyl-5-(2,2-difluorocyclopentane-1-carboxamido)-1H-indazol-1-yl)acetyl)-N-(6-bromo-3-methylpyridin-2-yl)-5-methyl-2-azabicyclo[3.1.0]hexane-3-carboxamide]",< 1000
3,"CC(=O)c1nn(CC(=O)N2[C@H]3C[C@@]3(CN(C)C)C[C@H]2C(=O)Nc2nc(Br)ccc2C)c2cc(C(=O)NS(=O)(=O)C3CC3)ccc12 [Compound T-50, 3-acetyl-1-(2-((1S,3S,5S)-3-((6-bromo-3-methylpyridin-2-yl)carbamoyl)-5-((dimethylamino)methyl)-2-azabicyclo[3.1.0]hexan-2-yl)-2-oxoethyl)-N-(cyclopropylsulfonyl)-1H-indazole-6-carboxamide]",1000 to 10000
4,"CC(=O)c1nn(CC(=O)N2C[C@H](F)C[C@H]2C(=O)Nc2cccc(Br)n2)c2c1CCCC2 [Compound T-37, (2S,4R)-1-(2-(3-acetyl-4,5,6,7-tetrahydro-1H-indazol-1-yl)acetyl)-N-(6-bromopyridin-2-yl)-4-fluoropyrrolidine-2-carboxamide]",1000 to 10000
5,"CC(=O)c1nn(CC(=O)N2[C@H]3C[C@@]3(CN(C)C)C[C@H]2C(=O)NCc2cccc(Cl)c2F)c2cc(P(C)(=O)O)ccc12 [Compound T-38, (3-acetyl-1-(2-((1S,3S,5S)-3-((3-chloro-2-fluorobenzyl)carbamoyl)-5-((dimethylamino)methyl)-2-azabicyclo[3.1.0]hexan-2-yl)-2-oxoethyl)-1H-indazol-6-yl)(methyl)phosphinic acid]",1000 to 10000
6,"CC(=O)c1nn(CC(=O)N2[C@H](C(=O)Nc3cccc(Br)n3)C[C@@]3(C)C[C@@H]23)c2cc(S(C)(=N)=O)ccc12 (stereo partly drawn) [Compound T-6, (1R,3S,5R)-2-(2-(3-acetyl-6-(S-methylsulfonimidoyl)-1H-indazol-1-yl)acetyl)-N-(6-bromopyridin-2-yl)-5-methyl-2-azabicyclo[3.1.0]hexane-3-carboxamide]",< 1000

# Same assay, conditions: Table 6; Human Factor D 80 nM, substrate Z-L-Lys-SBzl; read-out: IC5 (Stars)
row,Compound,IC50 [nM]
1,C/S(COc1ccc2c(C(N)=O)nn(CC(=O)N3C[C@H](F)C[C@H]3C(=O)Nc3cccc(-c4ccccc4Cl)c3F)c2c1)=N\C#N (stereo partly drawn) [Compound T-61],< 1000
2,"CC(=O)O[C@@H]1CO[C@H]2[C@@H]1OC[C@H]2Oc1ccc2c(c1)c(C(C)=O)nn2CC(=O)N1C[C@H](F)C[C@H]1C(=O)Nc1cccc(Br)n1 [Compound T-63, (3R,3aR,6R,6aR)-6-((3-acetyl-1-(2-((2S,4R)-2-((6-bromopyridin-2-yl)carbamoyl)-4-fluoropyrrolidin-1-yl)-2-oxoethyl)-1H-indazol-5-yl)oxy)hexa-hydrofuro[3,2-b]furan-3-yl acetate]",< 1000

# Same assay, conditions: Table 7; read-out: IC5 (Stars)
row,IC50 [nM],Compound
1,1000 to 10000,"Cc1ncc(-c2cc(C#N)cc(CC(=O)N3C[C@H](F)C[C@H]3C(=O)Nc3cccc(Br)n3)c2)cn1 [Compound T-114, (2S,4R)-N-(6-bromopyridin-2-yl)-1-(2-(3-cyano-5-(2-methylpyrimidin-5-yl)phenyl)acetyl)-4-fluoropyrrolidine-2-carboxamide]"
2,< 1000,"Cc1ncc(-c2cc(CC(=O)N3C[C@H](F)C[C@H]3C(=O)Nc3cccc(-c4ccccc4Cl)c3F)cc(C(N)=O)c2)cn1 [Compound T-112, (2S,4R)-1-(2-(3-carbamoyl-5-(2-methylpyrimidin-5-yl)phenyl)acetyl)-N-(2′-chloro-2-fluoro-[1,1′-biphenyl]-3-yl)-4-fluoropyrrolidine-2-carboxamide]"
3,1000 to 10000,"Cc1ccc(Br)nc1NC(=O)[C@@H]1C[C@@]2(C)C[C@H]2N1C(=O)Cc1ccc2[nH]nc(C(=O)O)c2c1 [Compound T-102, 5-(2-((1R,3S,5R)-3-((6-bromo-3-methylpyridin-2-yl)carbamoyl)-5-methyl-2-azabicyclo[3.1.0]hexan-2-yl)-2-oxoethyl)-1H-indazole-3-carboxylic acid]"
4,1000 to 10000,"Cc1ncc(-c2cc(CC(=O)N3C[C@H](F)C[C@H]3C(=O)Nc3cccc(Br)n3)cc(C(N)=O)c2)cn1 [Compound T-111, (2S,4R)-N-(6-bromopyridin-2-yl)-1-(2-(3-carbamoyl-5-(2-methylpyrimidin-5-yl)phenyl)acetyl)-4-fluoropyrrolidine-2-carboxamide]"
5,< 1000,"CC(=O)c1cc(CC(=O)N2C[C@H](F)C[C@H]2C(=O)Nc2cccc(-c3ccccc3Cl)c2F)cc(-c2cnc(C)nc2)c1 [Compound T-107, (2S,4R)-1-(2-(3-acetyl-5-(2-methylpyrimidin-5-yl)phenyl)acetyl)-N-(2′-chloro-2-fluoro-[1,1′-biphenyl]-3-yl)-4-fluoropyrrolidine-2-carboxamide]"
6,> 10000,"Cc1ccc(Br)nc1NC(=O)[C@@H]1C[C@@]2(C)C[C@H]2N1C(=O)Cn1nc(N2CCCC2=O)c2ccncc21 [Compound T-86, (1R,3S,5R)-N-(6-bromo-3-methylpyridin-2-yl)-5-methyl-2-(2-(3-(2-oxopyrrolidin-1-yl)-1H-pyrazolo[3,4-c]pyridin-1-yl)acetyl)-2-azabicyclo[3.1.0]hexane-3-carboxamide]"
7,1000 to 10000,"Cc1ncc(-c2cc(CC(=O)N3[C@H](C(=O)Nc4nc(Br)ccc4C)C[C@@]4(C)C[C@@H]34)cc(C(N)=O)c2)cn1 [Compound T-169, (1R,3S,5R)-N-(6-bromo-3-methylpyridin-2-yl)-2-(2-(3-carbamoyl-5-(2-methylpyrimidin-5-yl)phenyl)acetyl)-5-methyl-2-azabicyclo[3.1.0]hexane-3-carboxamide]"
8,> 10000,"Cc1ncc(-c2cc(CC(=O)N3C[C@H](F)C[C@H]3C(=O)Nc3cccc(-c4ccccc4Cl)c3F)cc(-c3cnc(C)nc3)c2)cn1 [Compound T-104, (2S,4R)-1-(2-(3,5-bis(2-methylpyrimidin-5-yl)phenyl)acetyl)-N-(2′-chloro-2-fluoro-[1,1′-biphenyl]-3-yl)-4-fluoropyrrolidine-2-carboxamide]"
9,> 10000,"COc1ncc(-c2cc(CC(=O)N3[C@H](C(=O)Nc4nc(Br)ccc4C)C[C@@]4(C)C[C@@H]34)cc(-c3cnc(OC)nc3)c2)cn1 [Compound T-109, (1R,3S,5R)-2-(2-(3,5-bis(2-methoxypyrimidin-5-yl)phenyl)acetyl)-N-(6-bromo-3-methylpyridin-2-yl)-5-methyl-2-azabicyclo[3.1.0]hexane-3-carboxamide]"
10,> 10000,"Cc1ccc(Br)nc1NC(=O)[C@@H]1C[C@@]2(C)C[C@H]2N1C(=O)Cc1cccc(-c2nnn[nH]2)c1 [Compound T-91, (1R,3S,5R)-2-(2-(3-(1H-tetrazol-5-yl)phenyl)acetyl)-N-(6-bromo-3-methylpyridin-2-yl)-5-methyl-2-azabicyclo[3.1.0]hexane-3-carboxamide]"
11,< 1000,"Cc1ncc(-c2cc(C#N)cc(CC(=O)N3C[C@H](F)C[C@H]3C(=O)Nc3cccc(-c4ccccc4Cl)c3F)c2)cn1 [Compound T-116, (2S,4R)-N-(2′-chloro-2-fluoro-[1,1′-biphenyl]-3-yl)-1-(2-(3-cyano-5-(2-methylpyrimidin-5-yl)phenyl)acetyl)-4-fluoropyrrolidine-2-carboxamide]"

# Further lines, the compound ahead of its results:
row,Compound,IC50 [nM]
1,"Cc1ccc(Br)nc1NC(=O)[C@@H]1C[C@@]2(CNC(=O)COCCOCCNC(=O)COCCOCCNC(=O)CC[C@H](NC(=O)CCCCCCCCCCCCCCCCC(=O)O)C(=O)O)C[C@H]2N1C(=O)Cn1nc(C(N)=O)c2cc(Nc3cccnc3)ccc21 [Compound T-71, (S)-1-((1R,3S,5R)-3-((6-bromo-3-methylpyridin-2-yl)carbamoyl)-2-(2-(3-carbamoyl-5-(pyridin-3-ylamino)-1H-indazol-1-yl)acetyl)-2-azabicyclo[3.1.0]hexan-5-yl)-24-carboxy-3,12,21,26-tetraoxo-5,8,14,17-tetraoxa-2,11,20,25-tetraazatritetracontan-43-oic acid]",< 1000
2,"CC(=O)c1nn(CC(=O)N2[C@H](C(=O)Nc3nc(Br)ccc3C)C[C@@]3(C)C[C@@H]23)c2cc3nc(C)oc3cc12 [Compound T-93, (1R,3S,5R)-2-(2-(3-acetyl-6-methyl-1H-oxazolo[5,4-f]indazol-1-yl)acetyl)-N-(6-bromo-3-methylpyridin-2-yl)-5-methyl-2-azabicyclo[3.1.0]hexane-3-carboxamide]",< 1000
3,"CCOP(=O)(CC)COc1ccc2c(C(C)=O)nn(CC(=O)N3C[C@H](F)C[C@H]3C(=O)Nc3nc(Br)ccc3C)c2c1 (stereo partly drawn) [Compound T-77, ethyl (((3-acetyl-1-(2-((2S,4R)-2-((6-bromo-3-methylpyridin-2-yl)carbamoyl)-4-fluoropyrrolidin-1-yl)-2-oxoethyl)-1H-indazol-6-yl)oxy)methyl)(ethyl)phosphinate]",< 1000
4,"CC(=O)c1nn(CC(=O)N2C[C@H](F)C[C@H]2C(=O)NCc2cccc(Cl)c2F)c2cc(OCP(=O)(O)O)ccc12 [Compound T-131, (((3-acetyl-1-(2-((2S,4R)-2-((3-chloro-2-fluorobenzyl)carbamoyl)-4-fluoropyrrolidin-1-yl)-2-oxoethyl)-1H-indazol-6-yl)oxy)methyl)phosphonic acid]",< 1000
5,"COC(=O)c1cc2c(cc1-c1cnc(C)nc1)c(C(C)=O)nn2CC(=O)N1[C@H](C(=O)Nc2nc(Br)ccc2C)C[C@@]2(C)C[C@@H]12 [Compound T-129, methyl 3-acetyl-1-(2-((1R,3S,5R)-3-((6-bromo-3-methylpyridin-2-yl)carbamoyl)-5-methyl-2-azabicyclo[3.1.0]hexan-2-yl)-2-oxoethyl)-5-(2-methylpyrimidin-5-yl)-1H-indazole-6-carboxylate]",< 1000

# Reference: patent US11447465B2, “Pharmaceutical compounds for treatment of medical disorders” (Achillion Pharmaceuticals, Inc., priority 2017, dated 2022)
